System: recombinant NL4-3 virus (Renilla luciferase in nef, Gag P373S)
Assay: HIV cell culture assay (luciferase activity in MT-2 cells infected with NLRluc recombinant virus)
Type: cell-based
Conditions: NL43, MT-2 cells infected 4-5 days with NLRluc recombinant virus, class symbol
Method in brief: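 Activity was read as luciferase output (Dual Luciferase reagents premixed with lysis solution) after 4–5 days of infection in serially diluted inhibitor. Host cells were MT-2 in 10% FBS RPMI. The reporter virus came from transfected 293T cells and was titered on MT-2.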

**Q.** For `C=C(C)[C@@H]1CC[C@]2(CNCCC(=O)N3CCCC3)CC[C@]3(C)[C@H](CC[C@@H]4[C@@]5(C)CC=C(c6ccc(C(=O)O)cc6F)C(C)(C)[C@@H]5CC[C@]43C)[C@@H]12` [Example 89, 3-fluoro-4-((1R,3aS,5aR,5bR,7aR,11aS,11bR,13aR,13bR)-5a,5b,8,8,11a-pentamethyl-3a-((3-oxo-3-(pyrrolidin-1-yl)propylamino)methyl)-1-(prop-1-en-2-yl)-2,3,3a,4,5,5a,5b,6,7,7a,8,11,11a,11b,12,13,13a,13b-octadecahydro-1H-cyclopenta[a]chrysen-9-yl)benzoic acid], which EC50 is on record?
**A.** The EC50 was under 100 nM.

**Q.** Which EC50 does the source give for `C=C(C)[C@@H]1CC[C@]2(CN[C@@H](CC(=O)OC)C(=O)OC)CC[C@]3(C)[C@H](CC[C@@H]4[C@@]5(C)CC=C(c6ccc(C(=O)O)cc6)C(C)(C)[C@@H]5CC[C@]43C)[C@@H]12` [Example 49, 4-((1R,3aS,5aR,5bR,7aR,11aS,11bR,13aR,13bR)-3a-(((S)-1,4-dimethoxy-1,4-dioxobutan-2-ylamino)methyl)-5a,5b,8,8,11a-pentamethyl-1-(prop-1-en-2-yl)-2,3,3a,4,5,5a,5b,6,7,7a,8,11,11a,11b,12,13,13a,13b-octadecahydro-1H-cyclopenta[a]chrysen-9-yl)benzoic acid] here?
**A.** Its EC50 is under 100 nM.

**Q.** `C=C(C)[C@@H]1CC[C@]2(CNCCCN3CCOCC3)CC[C@]3(C)[C@H](CC[C@@H]4[C@@]5(C)CC=C(c6ccc(C(=O)O)cc6)C(C)(C)[C@@H]5CC[C@]43C)[C@@H]12` [Example 2, 4-((1R,3aS,5aR,5bR,7aR,11aS,11bR,13aR,13bR)-5a,5b,8,8,11a-pentamethyl-3a-((3-morpholinopropylamino)methyl)-1-(prop-1-en-2-yl)-2,3,3a,4,5,5a,5b,6,7,7a,8,11,11a,11b,12,13,13a,13b-octadecahydro-1H-cyclopenta[a]chrysen-9-yl)benzoic acid] was tested. Which EC50 did it give?
**A.** The EC50 was under 100 nM.

**Q.** For `C=C(C)[C@@H]1CC[C@]2(CN(C)CCN3CCS(=O)(=O)CC3)CC[C@]3(C)[C@H](CC[C@@H]4[C@@]5(C)CC=C(c6ccc(C(=O)O)cc6)C(C)(C)[C@@H]5CC[C@]43C)[C@@H]12` [Example 33], which EC50 is on record?
**A.** Its EC50 is under 100 nM.

**Q.** `C=C(C)[C@@H]1CC[C@]2(CNCCCN3CCCS3(=O)=O)CC[C@]3(C)[C@H](CC[C@@H]4[C@@]5(C)CC=C(c6ccc(C(=O)O)cc6)C(C)(C)[C@@H]5CC[C@]43C)[C@@H]12` [Example 40, 4-((1R,3aS,5aR,5bR,7aR,11aS,11bR,13aR,13bR)-3a-(((3-(1,1-dioxido-2-isothiazolidinyl)propyl)amino)methyl)-1-isopropenyl-5a,5b,8,8,11a-pentamethyl-2,3,3a,4,5,5a,5b,6,7,7a,8,11,11a,11b,12,13,13a,13b-octadecahydro-1H-cyclopenta[a]chrysen-9-yl)benzoic acid] was tested. Which EC50 did it give?
**A.** Its EC50 is under 100 nM.

**Q.** How did the EC50 turn out when `C=C(C)[C@@H]1CC[C@]2(CNCCCN3CCNC(=O)C3)CC[C@]3(C)[C@H](CC[C@@H]4[C@@]5(C)CC=C(c6ccc(C(=O)O)cc6)C(C)(C)[C@@H]5CC[C@]43C)[C@@H]12` [Example 23, 4-((1R,3aS,5aR,5bR,7aR,11aS,11bR,13aR,13bR)-5a,5b,8,8,11a-pentamethyl-3a-((3-(3-oxopiperazin-1-yl)propylamino)methyl)-1-(prop-1-en-2-yl)-2,3,3a,4,5,5a,5b,6,7,7a,8,11,11a,11b,12,13,13a,13b-octadecahydro-1H-cyclopenta[a]chrysen-9-yl)benzoic acid] was run?
**A.** The EC50 was under 100 nM.

**Q.** `C=C(C)[C@@H]1CC[C@]2(CNCCCN(C)c3ccccc3)CC[C@]3(C)[C@H](CC[C@@H]4[C@@]5(C)CC=C(c6ccc(C(=O)O)cc6)C(C)(C)[C@@H]5CC[C@]43C)[C@@H]12` [Example 18, 4-((1R,3aS,5aR,5bR,7aR,11aS,11bR,13aR,13bR)-5a,5b,8,8,11a-pentamethyl-3a-((3-(methyl(phenyl)amino)propylamino)methyl)-1-(prop-1-en-2-yl)-2,3,3a,4,5,5a,5b,6,7,7a,8,11,11a,11b,12,13,13a,13b-octadecahydro-1H-cyclopenta[a]chrysen-9-yl)benzoic acid] was tested. Which EC50 did it give?
**A.** Its EC50 is under 100 nM.

**Q.** Which EC50 does the source give for `C=C(C)[C@@H]1CC[C@]2(CNCCC(=O)N3CCC(C(=O)O)CC3)CC[C@]3(C)[C@H](CC[C@@H]4[C@@]5(C)CC=C(c6ccc(C(=O)O)cc6)C(C)(C)[C@@H]5CC[C@]43C)[C@@H]12` [Example 104, 1-(3-(((1R,3aS,5aR,5bR,7aR,11aS,11bR,13aR,13bR)-9-(4-carboxyphenyl)-5a,5b,8,8,11a-pentamethyl-1-(prop-1-en-2-yl)-2,3,3a,4,5,5a,5b,6,7,7a,8,11,11a,11b,12,13,13a,13b-octadecahydro-1H-cyclopenta[a]chrysen-3a-yl)methylamino)propanoyl)piperidine-4-carboxylic acid] here?
**A.** The EC50 was under 100 nM.

**Q.** How did the EC50 turn out when `CC(C)[C@@H]1CC[C@]2(CNCCCN3CCS(=O)(=O)CC3)CC[C@]3(C)[C@H](CC[C@@H]4[C@@]5(C)CC=C(c6ccc(C(=O)O)cc6)C(C)(C)[C@@H]5CC[C@]43C)[C@@H]12` [Example 37, 4-((1R,3aS,5aR,5bR,7aR,11aS,11bR,13aR,13bR)-5a,5b,8,8,11a-pentamethyl-1-(prop-1-en-2-yl)-3a-((3-(1-dioxo-thiomorpholino)propylamino)methyl)-2,3,3a,4,5,5a,5b,6,7,7a,8,11,11a,11b,12,13,13a,13b-octadecahydro-1H-cyclopenta[a]chrysen-9-yl)benzoic acid] was run?
**A.** The EC50 was under 100 nM.

**Q.** For `C=C(C)[C@@H]1CC[C@]2(CNCCN3CCCC3=O)CC[C@]3(C)[C@H](CC[C@@H]4[C@@]5(C)CC=C(c6ccc(C(=O)O)cc6)C(C)(C)[C@@H]5CC[C@]43C)[C@@H]12` [Example 34, 4-((1R,3aS,5aR,5bR,7aR,11aS,11bR,13aR,13bR)-5a,5b,8,8,11a-pentamethyl-3a-((2-(2-oxopyrrolidin-1-yl)ethylamino)methyl)-1-(prop-1-en-2-yl)-2,3,3a,4,5,5a,5b,6,7,7a,8,11,11a,11b,12,13,13a,13b-octadecahydro-1H-cyclopenta[a]chrysen-9-yl)benzoic acid], which EC50 is on record?
**A.** The EC50 was under 100 nM.

**Q.** For `C=C(C)[C@@H]1CC[C@]2(CNCCS(=O)(=O)N3CCNCC3)CC[C@]3(C)[C@H](CC[C@@H]4[C@@]5(C)CC=C(c6ccc(C(=O)O)cc6)C(C)(C)[C@@H]5CC[C@]43C)[C@@H]12` [Example 43, 4-((1R,3aS,5aR,5bR,7aR,11aS,11bR,13aR,13bR)-5a,5b,8,8,11a-pentamethyl-3a-((2-(piperazin-1-ylsulfonyl)ethylamino)methyl)-1-(prop-1-en-2-yl)-2,3,3a,4,5,5a,5b,6,7,7a,8,11,11a,11b,12,13,13a,13b-octadecahydro-1H-cyclopenta[a]chrysen-9-yl)benzoic acid], which EC50 is on record?
**A.** Its EC50 is under 100 nM.

**Q.** `C=C(C)[C@@H]1CC[C@]2(CN(CCCN3CCS(=O)(=O)CC3)C(=O)CCC(=O)NS(=O)(=O)C3CC3)CC[C@]3(C)[C@H](CC[C@@H]4[C@@]5(C)CC=C(c6ccc(C(=O)O)cc6)C(C)(C)[C@@H]5CC[C@]43C)[C@@H]12` [Example 173, 4-((1R,3aS,5aR,5bR,7aR,11aS,11bR,13aR,13bR)-3a-(((4-((cyclopropylsulfonyl)amino)-4-oxobutanoyl)(3-(1,1-dioxido-4-thiomorpholinyl)propyl)amino)methyl)-1-isopropenyl-5a,5b,8,8,11a-pentamethyl-2,3,3a,4,5,5a,5b,6,7,7a,8,11,11a,11b,12,13,13a,13b-octadecahydro-1H-cyclopenta[a]chrysen-9-yl)benzoic acid] was tested. Which EC50 did it give?
**A.** Its EC50 is under 100 nM.

**Q.** How did the EC50 turn out when `C=C(C)[C@@H]1CC[C@]2(CNC(=O)OCCN3CCCC3=O)CC[C@]3(C)[C@H](CC[C@@H]4[C@@]5(C)CC=C(c6ccc(C(=O)O)cc6)C(C)(C)[C@@H]5CC[C@]43C)[C@@H]12` [Example 162, 4-((1R,3aS,5aR,5bR,7aR,11aS,11bR,13aR,13bR)-5a,5b,8,8,11a-pentamethyl-3a-(((2-(2-oxopyrrolidin-1-yl)ethoxy)carbonylamino)methyl)-1-(prop-1-en-2-yl)-2,3,3a,4,5,5a,5b,6,7,7a,8,11,11a,11b,12,13,13a,13b-octadecahydro-1H-cyclopenta[a]chrysen-9-yl)benzoic acid] was run?
**A.** Its EC50 is under 100 nM.

**Q.** How did the EC50 turn out when `C=C(C)[C@@H]1CC[C@]2(CNC(=O)CN3CCCC3=O)CC[C@]3(C)[C@H](CC[C@@H]4[C@@]5(C)CC=C(c6ccc(C(=O)O)cc6)C(C)(C)[C@@H]5CC[C@]43C)[C@@H]12` [Example 133, 4-((1R,3aS,5aR,5bR,7aR,11aS,11bR,13aR,13bR)-5a, 5b,8,8,11a-pentamethyl-3a-((2-(2-oxopyrrolidin-1-yl)acetamido)methyl)-1-(prop-1-en-2-yl)-2,3,3a,4,5,5a,5b,6,7,7a,8,11,11a,11b,12,13,13a,13b-octadecahydro-1H-cyclopenta[a]chrysen-9-yl)benzoic acid] was run?
**A.** The EC50 was under 100 nM.

**Q.** Which EC50 does the source give for `C=C(C)[C@@H]1CC[C@]2(CN3CCS(=O)(=O)CC3)CC[C@]3(C)[C@H](CC[C@@H]4[C@@]5(C)CC=C(c6ccc(C(=O)O)cc6)C(C)(C)[C@@H]5CC[C@]43C)[C@@H]12` [Example 168, 4-((1R,3aS,5aR,5bR,7aR,11aS,11bR,13aR,13bR)-3a-((1,1-dioxido-4-thiomorpholinyl)methyl)-1-isopropenyl-5a,5b,8,8,11a-pentamethyl-2,3,3a,4,5,5a,5b,6,7,7a,8,11,11a,11b,12,13,13a,13b-octadecahydro-1H-cyclopenta[a]chrysen-9-yl)benzoic acid] here?
**A.** The EC50 was under 100 nM.

**Q.** For `C=C(C)[C@@H]1CC[C@]2(CNCCCN3CCCC3=O)CC[C@]3(C)[C@H](CC[C@@H]4[C@@]5(C)CC=C(c6ccc(C(=O)O)cc6)C(C)(C)[C@@H]5CC[C@]43C)[C@@H]12` [Example 58, 4-((1R,3aS,5aR,5bR,7aR,11aS,11bR,13aR,13bR)-5a,5b,8,8,11a-pentamethyl-3a-((3-(2-oxopyrrolidin-1-yl)propylamino)methyl)-1-(prop-1-en-2-yl)-2,3,3a,4,5,5a,5b,6,7,7a,8,11,11a,11b,12,13,13a,13b-octadecahydro-1H-cyclopenta[a]chrysen-9-yl)benzoic acid], which EC50 is on record?
**A.** The EC50 was under 100 nM.
